For twelve compounds, TGI results are on record in PubChem BioAssay (NCI).

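The compound was tested at five concentrations on cells cultured in 96-well plates, with a 48-hour exposure period. The concentration for full growth arrest is given as TGI.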

Among the test systems are T-47D breast; SNB-19 CNS; DU-145 prostate; RPMI-8226 leukemia; A498 renal; IGROV1 ovarian; K-562 leukemia; MALME-3M melanoma; NCI-H226 lung; CCRF-CEM leukemia.
What all share (experiment): DTP human tumour cell line panel, 48 h

Broadly, the TGI is the concentration at which net growth stops.

On to `COc1cc2ncnc(NS(=O)(=O)c3cc4ccccc4s3)c2cc1OC`, for which the TGI with T-47D breast, in the test with SNB-19 CNS, with DU-145 prostate, in the test with RPMI-8226 leukemia, in the test with A498 renal and in the test on IGROV1 ovarian was above 100 µM throughout. The TGI in the test with K-562 leukemia, in the test with MALME-3M melanoma, with NCI-H226 lung and in the test on CCRF-CEM leukemia was above 100 µM in each case.
As to `CCN(CC)Cc1cc(N=Nc2c(O)ccc3c(N=Nc4ccc(O)c(CN(CC)CC)c4)c(O)ccc23)ccc1O`, the TGI came out at 32.7 µM with T-47D breast; 15.6 µM in the test on SNB-19 CNS; 9.55 µM in the test on DU-145 prostate; 19 µM in the test with RPMI-8226 leukemia; 27.9 µM in the test with A498 renal; 19 µM with IGROV1 ovarian. Also, the total growth inhibition concentration (TGI) in the test on K-562 leukemia is above 36.3 µM; with MALME-3M melanoma it was 21.5 µM; in the test on NCI-H226 lung, 22.7 µM; in the test with CCRF-CEM leukemia it was above 53.3 µM.
With `CN1C/C(=C\c2cccs2)C2=NN(c3ccccc3)C(c3cccs3)C2C1` (stereo not given), the TGI in the test on T-47D breast is 96.3 µM; with SNB-19 CNS, above 100 µM; in the test with DU-145 prostate it was above 58.2 µM; with RPMI-8226 leukemia it was above 100 µM; with A498 renal it was above 90.2 µM; with IGROV1 ovarian, above 25.5 µM. The TGI with K-562 leukemia was above 100 µM; in the test on MALME-3M melanoma, above 51.1 µM; in the test on NCI-H226 lung, above 100 µM; in the test with CCRF-CEM leukemia, 5.95 µM.
On to `CN(C)N1C(=O)C(=O)N(c2cccc3ccccc23)C1=O`, for which the TGI in the test with T-47D breast, in the test with SNB-19 CNS, in the test with DU-145 prostate, in the test on RPMI-8226 leukemia, in the test with A498 renal and in the test on IGROV1 ovarian was above 10 µM throughout. The TGI in the test with K-562 leukemia, with MALME-3M melanoma, in the test with NCI-H226 lung and in the test on CCRF-CEM leukemia was above 10 µM in each case.
`O=C(COc1cc(=O)oc2ccccc12)c1ccccc1`: the TGI with T-47D breast is above 100 µM; in the test with SNB-19 CNS, 48.9 µM; in the test with DU-145 prostate, above 100 µM; with RPMI-8226 leukemia, above 100 µM; in the test with A498 renal, above 100 µM; with IGROV1 ovarian, 76.7 µM. For the same compound, the TGI is above 100 µM in the test on K-562 leukemia, above 100 µM in the test on MALME-3M melanoma, 49 µM in the test with NCI-H226 lung and above 100 µM in the test with CCRF-CEM leukemia.
Take `Cc1cccc2c(=O)c3cccc([C@H](C)C(=O)O)c3oc12`: the TGI in the test on T-47D breast, in the test with SNB-19 CNS, in the test on DU-145 prostate, in the test on RPMI-8226 leukemia, in the test with A498 renal and in the test on IGROV1 ovarian was above 100 µM in each case. Also, the TGI in the test on K-562 leukemia, in the test on MALME-3M melanoma, in the test with NCI-H226 lung and with CCRF-CEM leukemia was above 100 µM in each case.
Take `Cc1ccc(C(=O)Nc2ccc(S(=O)(=O)O)c3cc(S(=O)(=O)O)cc(S(=O)(=O)O)c23)cc1NC(=O)c1cccc(NC(=O)Nc2cccc(C(=O)Nc3cc(C(=O)Nc4ccc(S(=O)(=O)O)c5cc(S(=O)(=O)O)cc(S(=O)(=O)O)c45)ccc3C)c2)c1`: the TGI in the test with T-47D breast, in the test with SNB-19 CNS, in the test on DU-145 prostate, in the test with RPMI-8226 leukemia, in the test on A498 renal and in the test on IGROV1 ovarian was above 100 µM throughout. In addition, the TGI is above 100 µM in the test on K-562 leukemia, above 100 µM with MALME-3M melanoma, above 89.4 µM in the test on NCI-H226 lung and above 100 µM in the test with CCRF-CEM leukemia.
`CC1=NNC(=O)C1C1(C(=O)O)CC(c2c[nH]c3ccccc23)=NC(=S)N1` (stereo not given): the TGI in the test with T-47D breast is above 100 µM; in the test on SNB-19 CNS, above 100 µM; in the test on DU-145 prostate, above 100 µM; in the test on RPMI-8226 leukemia, 84.5 µM; in the test on A498 renal, above 100 µM; in the test with IGROV1 ovarian, above 100 µM. Moreover, the TGI was determined as 73.9 µM in the test on K-562 leukemia, 74.3 µM with MALME-3M melanoma, 85.8 µM in the test on NCI-H226 lung and 64.1 µM with CCRF-CEM leukemia.
`Cc1cc2ncn(CC(=O)O)c2cc1C`: the TGI with T-47D breast, in the test with SNB-19 CNS, in the test with DU-145 prostate, in the test with RPMI-8226 leukemia, with A498 renal and in the test with IGROV1 ovarian was above 100 µM each time. In addition, the TGI in the test on K-562 leukemia, in the test on MALME-3M melanoma, in the test with NCI-H226 lung and in the test on CCRF-CEM leukemia was above 100 µM each time.
For the compound `O=C(CCCc1cccc2[nH]c3c(c12)CN(Cc1ccccc1)CC3)c1ccc(F)cc1`, the TGI is above 58.7 µM in the test on T-47D breast; above 100 µM in the test on SNB-19 CNS; above 100 µM in the test on DU-145 prostate; above 95.1 µM in the test with RPMI-8226 leukemia; above 100 µM with A498 renal; above 100 µM with IGROV1 ovarian. Moreover, the TGI in the test with K-562 leukemia, in the test on MALME-3M melanoma, in the test on NCI-H226 lung and in the test with CCRF-CEM leukemia was above 100 µM in each case.
Regarding `CC(C#N)(NO)C(C)(C#N)NO` (stereo not given), the TGI in the test with T-47D breast, in the test on SNB-19 CNS, with DU-145 prostate, with RPMI-8226 leukemia, in the test on A498 renal and in the test with IGROV1 ovarian was above 100 µM throughout. In addition, the TGI in the test on K-562 leukemia, in the test with MALME-3M melanoma, in the test with NCI-H226 lung and in the test with CCRF-CEM leukemia was above 100 µM each time.
`N=C1OC(CN2CCN(c3ccccc3)CC2)CN1C(=O)Nc1ccccc1` (stereo not given): the TGI with T-47D breast, in the test on SNB-19 CNS, with DU-145 prostate, with RPMI-8226 leukemia, in the test on A498 renal and with IGROV1 ovarian was above 100 µM in each case. Besides, the TGI in the test with K-562 leukemia, with MALME-3M melanoma, in the test on NCI-H226 lung and in the test on CCRF-CEM leukemia was above 100 µM each time.
